# Test results published in patent US20260285924A1, “PEPTIDE THERAPEUTICS” (priority 2023, published 2026).
# Key:
# Assay type in all cases: cell-based, human
# A375-WT = assay: Pan-Cancer PepTile/PiTile fitness screen (lentiviral 40-mer peptide library, NGS abundance); set-up: key: enrichment of each peptide's NGS abundance, early day vs Day 14; settings: for A375-WT Fitness Score: Pan-Cancer library, peptide enrichment day 14 vs day 0
# From the text: FIGS. 13A-13D show Pan-Cancer PiTile Workflow. (A) The Pan-Cancer peptide library is composed of 1081 proteins tiled into 40-mer peptides at every 6 amino acids of the parental protein. The DNA-encoded library is cloned into lentiviral vectors and packaged into lentivirus. (B) A375 cell line was transduced with the Pan-Cancer PiTile library. Genomic DNA was then harvested at Day2 and Day 14 post-transduction and cell populations abundance expressing the different peptides were quantified using Next-Generation Sequencing (NGS). Peptide fitness score was then calculated by the abundance of each peptide at Day2 versus Day 14. Then the fitness signal is mapped over the original amino acid positions of the derived protein. (C) Coverage of the plasmid Pan-Cancer library and peptide-amplicons from Day2 and Day 14 replicated was determined by NGS. (D) Dot plot of the experimental result obtain from screening the Pan-Cancer library in A375 cell line.
# (§1) A peptide tilling screen was performed in A375 similarly to a screen done in MDA-MB-231 (FIG. 1) but with a different lentiviral library. The library (Pan-Cancer library) is composed of 1020 genes tiled every 6 amino acids into 40-mer amino acid long peptides. The gene selection was based on their implication in oncogenesis either being as oncogenes or tumor suppressors. The list was built using recent literature that identified new cancer drivers as well as databases such as Uniprot keywords (KW-0656: Proto-oncogene, KW-0043: Tumor suppressor), and Gene Ontology terms (GO1900117: Apoptosis, GO1901979: Cell cycle checkpoint) (FIG. 2). Aside from Human genes, a list of viral genes was also included (KW-1121: Modulation of host cell cycle by virus) that play roles in high jacking cell cycle progression and thus in oncogenesis (FIG. 2).
# (§2) The model of study is melanoma, and this disease is stratified into 4 molecular subtypes, BRAF mutants, NRAS mutants, KIT amplification, NF1 mutations (FIG. 3A). The most prominent mutations found in patient affected with metastatic melanomas are BRAF^V600E and NRAS^Q61K (FIG. 3B). RAS play a key role in oncogenesis and resistance to treatments. Indeed, RAS activating mutations is found in ~20% of all human cancers and secondary NRAS mutation leads to acquired resistance to BRAF targeted therapy such as vemurafenib. Thus, the screen was performed in an A375 cell line model which derived from human BRAF^V600E melanoma as well as an engineered A375 transduced with HA-NRAS^Q61K (FIG. 4A, B). Both cell lines grow at a similar rate but the A375-NRAS^Q61K display more than 10-fold resistance to vemurafenib treatment compared to parental A375 (FIG. 4C, D).
# (§3) These cells were transduced with the Pan-Cancer library at a low multiplicity of infection (MOI=0.1-0.3). Then, genomic DNA was extracted at day 0 and day 14 post-transduction to quantify the abundance of peptide for each temporal conditions using Next-generation sequencing. Each experimental replicates were deep sequenced with at least 150 million reads and show a coverage between 82-90% of the initial Pan-Cancer Peptide library (FIG. 5). Then, for each individual peptides a cellular fitness score was calculated based on their enrichment between day 0 and day 14. 8090 peptides negatively affecting growth of A375-WT were identified and 8153 peptides for the A375-NRAS^Q61K cell line (FIG. 6). […] Those common hits are found to be tiles from ~100 genes of the Pan-Cancer gene list and show a substantial biological function clustering.
# We built a DNA-encoded peptide library composed of all known Human oncogenes and Tumor Suppressors that we fragmented in 40 amino acid long peptides, the Pan-Cancer library. Using lentiviral expression system, we transduced the Pan-Cancer library in A375 cell line. After 14 days of growth, the frequency of each peptide is measured by NGS and this reveal which peptides affect cell fitness. […]
# A375-NRAS^Q61K = assay: Pan-Cancer PepTile fitness screen (lentiviral 40-mer peptide library, NGS abundance); settings: peptide enrichment day 14 vs day 0
# Protocol: as §1, §2, §3
# [1] = tested on: A-to-I RNA editing reporter (ADAR) in A375; assay: A-to-I PepTile (REPTILE) screen: A-to-I editing of dsRNA hairpin reporter by NGS; settings: for % A-to-I editing (IFNα): IFNα 6000 U/ml for 48 hours; for % A-to-I editing (Basal): no treatment
# From the text: (§4) FIGS. 12A-12D. A-to-I PepTile screen. (A) Composition of A-to-I PepTile linrary screen, and schematic description of the lentiviral expression vector. (B) Experimental workflow. A375 cells were transduced at low MOI, and then treated or not with IFNα for 48 hrs. RNA was extracted and Peptide_ADARreporter RNA species were amplified and sequenced by NGS. (C) Dot plot of A-to-I PepTile library effect on A-to-I editing with or without IFNα treatment. Red line is the mean A-to-I editing of all the 8088 peptides (>100 read counts) no treatment: 25.75% IFNα: 37.6%. (D) Dot plot of A-to-I PepTile library fitness effect upon IFNα for 48 hrs.
# FIGS. 17A-17F show A-to-I RNA Editing PiTile (REPTILE) screen in A375. (A) A-to-I RNA Editing PiTile (REPTILE) library design consist of fragmentation of all known ADAR1, ADAR2 interactors and all human double stranded RNA-binding protein into 40 amino acid long peptide. This library was then cloned into a lentivirus vector that also encode a DNA-encoded RNA loop reporter (A-to-I Rep) that is edited by ADAR proteins in cells at the RNA level. When the construct is expressed, the RNA loop gets edited on a single Adenosine, while the 40-mer peptide get expressed at the protein level. Then we can measure the impact of the peptide expression on the editing rate of the RNA loop reporter by sequencing (NGS and Sanger). (B) Experimental workflow of REPTILE screen in A375 cell line. Cells were transduced with the REPTILE library, and then treated for 48 hours with IFNα. Following the treatment, RNA was harvested, converted into cDNA and amplicon library containing peptide Identity (barcode) linked to the RNA loop reporter were prepared for NGS. (C) Result of the A375 REPTILE screen in the no treatment condition. Each dot represents a unique peptide that is associated with an A-to-I editing rate that was measured on the RNA loop. (D) Result of the A375 REPTILE screen in the IFNα condition. Each dot represents a unique peptide that is associated with an A-to-I editing rate that was measured on the RNA loop. Red line represent the A-to-I editing mean, Dash blue line represent 2 times the standard deviation of the % A-to-I editing across all the datasets. This cutoff was used to defined peptides hits that modulate RNA A-to-I editing. (E) Peptide A-to-I Inhibitor Hits intersection between no treatment (% A-to-I editing<15%) and IFNα (% A-to-I editing<27%) conditions. (F) Peptide A-to-I Enhancers Hits intersection between no treatment (% A-to-I editing>36%) and IFNα (% A-to-I editing>47%) conditions.
# Provided herein is a screening methodology to measure the effect of small peptide on A-to-I RNA editing in situ and screen thousands of peptides in a single experiment. First, a library of peptides with the potential of impairing A-to-I editing was designed and built. ADAR enzymes edit RNA only on double-stranded RNA structures and via ADAR's double stranded RNA-Binding Domain (dsRBD). […] The A-to-I PepTile library is composed of 19 Human proteins having dsRBD and 34 known protein-protein interactors of ADAR1/2. All these proteins were tiled into 40-mer peptides every 4 amino acids (FIG. 12A). To measure A-to-I editing, a biosensor consisting of a 71 bp dsRNA hairpin structure that gets A-to-I edited at a rate of 25% in A375 melanoma cells, and ~37% upon IFNα treatment was used. This A-to-I editing reporter is fused with DNA sequence encoding for a peptide from the A-to-I PepTile library. The A-to-I PepTile plasmid pool (10304 elements) was used to produced lentiviruses and transduced A375 cells at a low multiplicity of infection (MOI) (FIG. 12B). A part of the infected cells was treated with IFNα at 6000 U/ml for 48 hours, and then bulk RNA of the basal and treated condition was harvested. RNA was then retrotranscribed into cDNA and sequenced by Next-Generation Sequencing (NGS). […]
# A375 cells = assay: A-to-I PepTile screen: fitness effect upon IFNα (PepTile abundance untreated vs treated)
# From the text: as §4
# Provided herein is a screening methodology to measure the effect of small peptide on A-to-I RNA editing in situ and screen thousands of peptides in a single experiment. First, a library of peptides with the potential of impairing A-to-I editing was designed and built. ADAR enzymes edit RNA only on double-stranded RNA structures and via ADAR's double stranded RNA-Binding Domain (dsRBD). […] The A-to-I PepTile library is composed of 19 Human proteins having dsRBD and 34 known protein-protein interactors of ADAR1/2. All these proteins were tiled into 40-mer peptides every 4 amino acids (FIG. 12A). To measure A-to-I editing, a biosensor consisting of a 71 bp dsRNA hairpin structure that gets A-to-I edited at a rate of 25% in A375 melanoma cells, and ~37% upon IFNα treatment was used. This A-to-I editing reporter is fused with DNA sequence encoding for a peptide from the A-to-I PepTile library. The A-to-I PepTile plasmid pool (10304 elements) was used to produced lentiviruses and transduced A375 cells at a low multiplicity of infection (MOI) (FIG. 12B). A part of the infected cells was treated with IFNα at 6000 U/ml for 48 hours, and then bulk RNA of the basal and treated condition was harvested. RNA was then retrotranscribed into cDNA and sequenced by Next-Generation Sequencing (NGS). With the sequencing data, the A-to-I editing percentage of the RNA reporter for each PepTile is calculated since both elements are encoded on the same transcript. Moreover, with this screen one can also measure the abundance of the PepTiles between the untreated and treated conditions and determine Fitness score associated to every PepTile. To ensure a robust and more accurate A-to-I editing % estimation a cut-off of 100 read counts was set for each PepTile. […] SEQ ID NOs: 2125-2147 are A-to-I peptide inhibitors and SEQ ID NOs: 2148-2210 are A-to-I activators. In addition, 117 PepTiles were identified that either synergize (SEQ ID NOs: 2211-2243) or protect (SEQ ID NOs: 2244-2327) to IFNα-induced cell death (FIG. 12D and Table 5). These PepTiles are potential new therapeutic agents that can modulate the Interferon pathway. They may be beneficial in treating inflammatory conditions and may also enhance the effectiveness of cancer immunotherapy through synergistic effects.
# [2] = IFNα 6000 U/ml for 48 hours vs untreated
Substance,A375-WT Fitness Score (A375-WT),A375-NRAS Fitness Score (A375-NRAS^Q61K),"Fitness score (A375-WT; PanCancer Peptide Table (Table 3), lentivirally expressed 40-mer peptide tile)",% A-to-I editing (IFNα) [1] [%],% A-to-I editing (Basal) [1] [%],Fitness Score IFNα (A375 cells; [2]),"Fitness Score IFNα (A375 cells; A375, PepTile abundance upon IFNα treatment, negative = synthetic lethal, positive = protector)"
"ARID2_13: 40-mer peptide tile of ARID2, AA start position 72, ARID domain (IVEEFNFPRSCSNAAFALKQYYLRYLEKYEKVHHFGEDDD; UniProt Q68CP9 72-111, looked up, fragment)",−2.41,0.85,–,–,–,–,–
"AXIN1_22: 40-mer peptide tile of AXIN1, AA start position 126, RGS domain (KLEPCDSNEEKRLKLARAIYRKYILDNNGIVSRQTKPATK; RGS domain peptide tile; UniProt O15169 126-165, looked up, fragment)",−2.88,−0.54,–,–,–,–,–
"BRAF_64: 40-mer peptide tile of BRAF, AA start position 378, CR2 domain (NIDDLIRDQGFRGDGGSTTGLSATPPASLPGSLTNVKALQ; UniProt P15056 378-417, looked up, fragment)",−2.28,−2.72,–,–,–,–,–
"CDKN2B_4: 40-mer peptide tile of CDKN2B, AA start position 18, ANK domain (LASAAARGLVEKVRQLLEAGADPNGVNRFGRRAIQVMMMG; UniProt P42772 18-57, looked up, fragment)",0.36,−3.63,–,–,–,–,–
"CTNNB1_30: 40-mer peptide tile of CTNNB1, AA start position 174, Armadillo domain (MVHQLSKKEASRHAIMRSPQMVSAIVRTMQNTNDVETARC; UniProt P35222 174-213, looked up, fragment)",−3.29,−0.85,−3.30,–,–,–,–
"DOCK4_114: 40-mer peptide tile of DOCK4, AA start position 678, Armadillo domain (LIKVLKWYVDRITEAERQEHIQEVLKAQEYIFKYIVQSRR; UniProt Q8N1I0 678-717, looked up, fragment)",0.87,−3.45,–,–,–,–,–
MVSSAAGPLGPGDAVRRVLECVATGTLLTDGPGLQDPCERD [ZFR2_206],–,–,–,55.48,44.05,0.81,–
MVVLLCRQPCASQSSLKDINWDSSQWQPLIQDRCFLSWLVK [UPF1_52],–,–,–,47.63,50.56,-0.80,–
MVYQAPLSLATVPHQALGRTQSSPAAPGGMKSPPDQPVKHL [HDAC5_161],–,–,–,48.17,43.88,-0.12,–
MWDSIIQQATKNVDILKDPETVKQLGSILKTNVRACKAVGH [XPO1_167],–,–,–,25.96,11.93,1.42,–
MYSGYEAAVYSAASSYYQQQQQQQKQAAAAAAAAAATAAWT [ZFR_67],–,–,–,47.21,41.43,2.43,2.43
